Results as given in patent publication US11020451B2, “Methods for treating fibrotic cancers” (Promedior, Inc., priority 2013, dated 2021).

Experiments:
Type in all cases: in vivo, human
[1] = test system: myelofibrosis (MF) patients; test: Adverse events, tolerability and myelosuppression, Stage 1 study of PRM-151 alone and with ruxolitinib; details: for safety and tolerability: MF patients, alone and in combination with RUX; for treatment-related myelosuppression: after 24 weeks of therapy, all four cohorts
Method: (§1) Recombinant human SAP, in this case the recombinant human SAP known as PRM-151, was administered to myelofibrosis (MF) patients, alone and in combination with ruxolitinib (RUX), to evaluate safety and efficacy in treating bone marrow fibrosis (BMF). Patients with Intermediate-1, Intermediate-2, or high risk MF with grade ≥2 BMF, either not receiving therapy or on a stable dose of RUX, were eligible for this study.
(§2) Twenty-seven patients were assigned to one of four cohorts based on administration of PRM-151 as a monotherapy or as part of a combination therapy. Cohort 1: i) patients who received no treatment for MF in at least two weeks, ii) were administered an initial loading dose of SAP at 10 mg/kg by intravenous infusion (˜1 hour infusion) on days 1, 3, and 5, and iii) thereafter were administered a dose of SAP every four weeks at 10 mg/kg by intravenous infusion (˜1 hour infusion). Cohort 2: i) patients who received no treatment for MF in at least two weeks, ii) were administered an initial loading dose of SAP at 10 mg/kg by intravenous infusion (˜1 hour infusion) on days 1, 3, and 5, and iii) thereafter were administered a dose of SAP every week at 10 mg/kg by intravenous infusion (˜1 hour infusion). Cohort 3: i) patients on a stable dose (e.g., on ruxolitinib for at least 3 months without any dose modifications) of ruxolitinib for at least 12 weeks with no improvement in spleen during the last four weeks, ii) were administered an initial loading dose of SAP at 10 mg/kg by intravenous infusion (˜1 hour infusion) on days 1, 3, and 5 iii) thereafter were administered a dose of SAP every week at 10 mg/kg by intravenous infusion (˜1 hour infusion), and iv) were administered RUX orally at the dose at which they entered the study. Cohort 4: i) patients on a stable dose (e.g., on ruxolitinib for at least 3 months without any dose modifications) of ruxolitinib for at least 12 weeks with no improvement in spleen during the last four weeks, ii) were administered an initial loading dose of SAP at 10 mg/kg by intravenous infusion (˜1 hour infusion) on days 1, 3, and 5 iii) thereafter were administered a dose of SAP every four weeks at 10 mg/kg by intravenous infusion (˜1 hour infusion), and iv) were administered RUX orally at the dose at which they entered the study.
(§3) Patients in each cohort were monitored for improvements in BMF and other MF-related complications including, for example, abnormal blood cell parameters, splenomegaly, and symptoms as assessed by the MPN-SAF. In particular, patients were monitored for overall response rate according to the International Working Group consensus criteria for treatment response in myelofibrosis with myeloid metaplasia (Tefferi A, Cervantes F, Mesa R, et al. Revised response criteria for myelofibrosis: International Working Group-Myeloproliferative Neoplasms Research and Treatment (IWG-MRT) and European LeukemiaNet (ELN) consensus report. Blood. 2013; 122:1395-1398). Patients were also monitored for incidence of adverse events, changes in bone marrow fibrosis according to the European Consensus of Grading Bone Marrow Fibrosis (Thiele J, Kvasnicka H M, Facchetti F, et al. European consensus on grading bone marrow fibrosis and assessment of cellularity. Haematologica 2005; 90:1128-1132.), changes in the modified Myeloproliferative Neoplasma Symptom Assessment Form (MPN-SAF) Score (Emanuel et al. 2012, Journal of Clinical Oncology 30(33): 4098-4103), as well as pharmacokinetic parameters including, for example, maximum drug concentration (Cmax), time to maximum concentration (Tmax), area under the curve (AUC), clearance, and volume of distribution.
The numbers indicated in each column below the grade indicate the number of patients in which the adverse event was reported.

[2] = test system: myelofibrosis (MF) patients; test: MPN-SAF Total Symptom Score and IWG-MRT symptom response, same study; details: for number of patients with measurable symptom response (TSS reduction): alone; for MPN-SAF TSS response: patient 101-005 (Cohort 1), 24-30 weeks of monotherapy
Method: as §1, §2, §3
(§4) Clinical response assessment, including assessment of spleen size, MPN-SAF, and CBC, was carried out every 4 weeks. BM biopsies were carried out at baseline, 12 weeks, and 24 weeks. The IWG-MRT symptom and bone marrow responses observed at 24 weeks of this study are summarized below in Table 3. […]

[3] = test system: myelofibrosis (MF) patients; test: Bone marrow fibrosis grade (European Consensus) and bone marrow response, same study; details: for number of patients with decrease in bone marrow fibrosis by ≥1 grade: all treatment arms, at 12 or 24 weeks or both; for bone marrow fibrosis grade change: after 12 weeks
Method: as §1, §2, §3
Bone marrow biopsies were obtained at baseline and after three months of therapy and were reviewed. […] As detailed below, these improvements in BMF have borne out upon further analysis of the data across further treatment periods.
Clinical response assessment, including assessment of spleen size, MPN-SAF, and CBC, was carried out every 4 weeks. […]

[4] = test system: myelofibrosis (MF) patients; test: Spleen size / spleen response, same study; details: for number of patients with measurable decrease in spleen size: alone; for spleen size response: patient 101-005 (Cohort 1), 24-30 weeks of monotherapy
Method: as §1, §2, §3, §4

[5] = test system: myelofibrosis (MF) patients; test: Hemoglobin, platelets (CBC) and red blood cell transfusions, same study; details: for hemoglobin response / platelet response: patient 101-005 (Cohort 1), 24-30 weeks of monotherapy
Method: as §1, §2, §3, §4

[6] = Cohort 1: 10 mg/kg IV Q4W alone, 24 weeks
[7] = Cohort 2: 10 mg/kg IV QW alone, 24 weeks
[8] = a number of patients in all 4 treatment arms

## PRM-151: recombinant human SAP (serum amyloid P, pentraxin-2), α2,3-sialic acid-containing, expressed in CHO cells
[1]; [6]
  Abdominal pain Gr 3, number of patients: 1
  Fatigue Gr 2, number of patients: 2
  Neuropathy Peripheral Gr 2, number of patients: 1
[1]; [7]
  Abdominal pain Gr 3, number of patients: 1
  Alanine aminotransferase increased Gr 2, number of patients: 1
[1]; listed as SAP
  safety and tolerability: good tolerability
[1]; listed as rhSAP
  safety and tolerability: safe and well tolerated
  treatment-related myelosuppression: no evidence of clinically significant myelosuppression
[1]
  treatment-related myelosuppression: no apparent treatment-related myelosuppression
[2]; Cohort 1: Q4W alone, 24 weeks
  symptom response ≥8 weeks, number: 1 symptom response ≥8 weeks
[2]; Cohort 1: every 4 weeks
  number of patients with measurable symptom response (TSS reduction): 4
[2]; Cohort 2: QW alone, 24 weeks
  confirmed symptom responses (≥12 weeks), number: 2 confirmed symptom responses (≥12 weeks)
  symptom response ≥8 weeks, number: 1 symptom response ≥8 weeks
[2]; Cohort 2: weekly
  number of patients with measurable symptom response (TSS reduction): 1
[2]; less than 50% on Cycle 6 Day 29
  additional subjects with 50% decrease in symptom score lasting ≥8 weeks: Two
[2]; of 18 evaluated patients followed to C6D29 or beyond, all four arms
  number of patients with reduction in MPN-SAF TSS compared to baseline: 10
[2]; on Cycle 6 Day 29, all arms
  number of patients with ≥50% reduction in Total Symptom Score: 5
[2]
  MPN-SAF TSS response: decrease
[2]; listed as rhSAP
  MPN-SAF TSS response: reduction
[3]; Cohort 1: Q4W alone, 24 weeks
  bone marrow responses, number: 2 bone marrow responses
[3]; Cohort 1: Q4W alone, 24 weeks, listed as recombinant human SAP
  bone marrow responses, number: 2
[3]; Cohort 2: QW alone, 24 weeks
  bone marrow responses, number: 1 bone marrow response
[3]
  number of patients with decrease in bone marrow fibrosis by ≥1 grade: 5
[3]; listed as recombinant human SAP
  number of patients with decrease in bone marrow fibrosis by ≥1 grade: five
[3]; in 10 additional patients evaluated at 36 weeks, alone or in combination
  bone marrow responses, number: 3
[3]; of 27 subjects examined, biopsies at baseline and after three months, all cohorts
  number of subjects with improvement in BMF: 5
[3]; one Cohort 1 patient (every four weeks, alone)
  bone marrow fibrosis grade change: Grade 2 to Grade 0
[3]; one Cohort 2 patient (weekly, alone)
  bone marrow fibrosis grade change: Grade 3 to Grade 2
[3]; patient 101-005 (Cohort 1), 12 weeks / three months
  bone marrow fibrosis grade change (reticulin staining): Grade 2 to Grade 0
[3]; patient 108-003 (Cohort 4), six months
  bone marrow fibrosis grade change (reticulin staining): Grade 2 to Grade 1
[3]; patient 108-003 (Cohort 4), three months
  bone marrow fibrosis grade change (reticulin staining): Grade 3 to Grade 2
[3]; patients responsive at the 12- or 24-week mark, following 36 weeks of treatment
  durability of response: continued to respond
[4]; Cohort 1: every 4 weeks
  number of patients with measurable decrease in spleen size: 3
[4]; Cohort 2: QW alone, 24 weeks
  spleen response ≥8 weeks, number: 1 spleen response ≥8 weeks
[4]; Cohort 2: weekly
  number of patients with measurable decrease in spleen size: 2
[4]; all treatment arms, 24 weeks
  number of patients with ≥20% reduction in spleen volume: five
[4]; of 13 evaluated patients with palpable spleen followed to C6D29 or beyond, all four arms
  number of patients with reduction in spleen size compared to baseline: 10
[4]; one patient, Cohort 2 (weekly, alone), lasting 8 weeks
  reduction in spleen volume: 50%
[4]
  spleen size response: decrease
[4]; listed as rhSAP
  spleen size response: reduction
[5]; [8]
  hemoglobin levels: Improvement
  platelet levels: Improvement
  red blood cell transfusions: decrease
[5]
  hemoglobin response: increase
  platelet response: increase
[5]; listed as rhSAP
  hemoglobin response: improvement
  platelet response: improvement
